Data: US9156811B2 (priority 2008, dated 2015)
Like-named read-outs stand apart in the source and are kept apart here.

Tests used:
[1] = test system: Trypanosome (T. brucei brucei); assay: In-vitro antitrypanosomal efficacy assay (cell growth, resazurin); assay type: cell-based
Procedure: To column 12, 200 μl media was added to provide a no cells control. Plates were then incubated at 37° C. in an atmosphere of 5% CO2 for 69 hours, before the addition of 20 μl of 500 μM rezasurin solution, and a further incubation period of 4 hours. […] Concentration effect curves were fitted using non-linear regression using XLFit 4.2 and EC50 values determined.

[2] = target: T. brucei N-myristoyl transferase (Trypanosoma brucei brucei (strain 927/4 GUTat10.1), UniProt Q388H8); assay: biochemical; assay type: biochemical
human NMT-1 = human NMT-1 (Homo sapiens (Human), UniProt P30419); assay: NMT enzyme inhibition scintillation proximity assay, human NMT-1; assay type: biochemical
human NMT-1, sequence (P30419 whole entry): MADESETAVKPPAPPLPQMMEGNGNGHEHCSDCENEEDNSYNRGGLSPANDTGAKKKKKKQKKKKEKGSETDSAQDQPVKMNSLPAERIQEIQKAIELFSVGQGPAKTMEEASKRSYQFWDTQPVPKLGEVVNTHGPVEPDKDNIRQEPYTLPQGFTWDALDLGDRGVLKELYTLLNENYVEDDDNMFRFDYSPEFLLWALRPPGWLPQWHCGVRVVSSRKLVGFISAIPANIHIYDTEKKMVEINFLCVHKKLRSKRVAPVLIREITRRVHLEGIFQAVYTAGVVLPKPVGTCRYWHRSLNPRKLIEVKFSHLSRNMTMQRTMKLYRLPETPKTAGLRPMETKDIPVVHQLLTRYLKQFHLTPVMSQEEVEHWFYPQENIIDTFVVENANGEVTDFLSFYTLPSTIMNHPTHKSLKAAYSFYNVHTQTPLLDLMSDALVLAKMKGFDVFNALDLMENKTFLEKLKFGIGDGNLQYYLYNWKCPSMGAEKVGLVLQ

[3] = value with no enzyme tag in the cell, taken as T. brucei NMT, read-out: IC50 (μM) NMT Enzyme
[4] = T. brucei brucei, blood stream form, variant 221
[5] = T. brucei NMT, value without parentheses, read-out: IC50 (μM) NMT Enzyme (T. brucei NMT)
[6] = Human NMT-1, value in parentheses, read-out: IC50 (μM) NMT Enzyme (HuNMT-1)

T. brucei N-myristoyl transferase, sequence (Q388H8 1-446): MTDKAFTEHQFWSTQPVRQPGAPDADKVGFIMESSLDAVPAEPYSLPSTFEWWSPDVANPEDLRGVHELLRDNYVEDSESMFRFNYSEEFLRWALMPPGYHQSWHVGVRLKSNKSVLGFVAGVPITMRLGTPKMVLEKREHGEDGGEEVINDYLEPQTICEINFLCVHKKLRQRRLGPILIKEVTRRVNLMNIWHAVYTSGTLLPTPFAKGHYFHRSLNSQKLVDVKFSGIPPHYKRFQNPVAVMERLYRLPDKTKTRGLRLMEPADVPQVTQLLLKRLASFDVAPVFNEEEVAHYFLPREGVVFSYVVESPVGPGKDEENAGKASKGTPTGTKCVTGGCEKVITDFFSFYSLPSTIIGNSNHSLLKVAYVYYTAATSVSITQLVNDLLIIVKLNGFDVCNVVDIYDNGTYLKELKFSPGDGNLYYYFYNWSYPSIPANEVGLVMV

Structure (SMILES) | ED50 (μM) T. brucei ([1]; T. brucei cell growth) [µM] | IC50 [2, 3] [µM] | IC50 (human NMT-1; HuNMT-1) [µM] | ED50 (μM) T. brucei [1, 4] [µM] | IC50 [2, 5] [µM] | IC50 (human NMT-1; [6]) [µM]
Cc1nn(C)cc1N[S+](=O)([O-])c1ccc(Br)cc1 [DDD88320] | >10 | 44.1 | > 100 |  |  | 
Cn1cc(N[S+](=O)([O-])c2ccc(Br)cc2)cn1 [DDD88321] | >10 | > 100 | > 100 |  |  | 
Cc1ccncc1N[S+](=O)([O-])c1c(Cl)cc(-c2ccnc(N3CCNCC3)c2)cc1Cl [DDD88322] | 1.93 | 0.182 | 1.5 |  |  | 
Cc1nn(C)cc1N[S+](=O)([O-])c1c(Cl)cc(Br)cc1Cl [DDD88324] | >10 | 75.4 | 3.36 |  |  | 
Cn1cc(N[S+](=O)([O-])c2c(Cl)cc(Br)cc2Cl)cn1 [DDD88325] | >10 | > 100 | > 100 |  |  | 
Cc1c(N[S+](=O)([O-])c2ccc(Br)cc2)cnn1C [DDD88326] | >10 | > 100 | > 100 |  |  | 
Cc1nn(C)c(C)c1N[S+](=O)([O-])c1ccc2nc(NC3CCNCC3)ccc2c1 [DDD88523] | >1 | 0.61 | 6.3 |  |  | 
CCCN(CCC)Cc1cccc(-c2cc(Cl)c([S+](=O)([O-])N(C)c3c(C)nn(C)c3C)c(Cl)c2)c1 [DDD88636] | 1.89 | 0.92 | 3.7 |  |  | 
Cc1nn(C)c(C)c1N[S+](=O)([O-])c1cccc(CCCN2CCN(C)CC2)c1 [DDD88640] | 18.7 | > 1 | > 1 |  |  | 
Cc1nn(C)c(C)c1N(C)[S+](=O)([O-])c1c(Cl)cc(-c2cccc(CNC3CCCCC3)c2)cc1Cl [DDD88642] | 0.89 | 0.39 | 4.48 |  |  | 
Cc1nn(C)c(C)c1N[S+](=O)([O-])c1ccc(-c2cccc(CC3CCN(C)CC3)c2)cc1 [DDD90107] | 0.040 | 0.004 |  |  |  | 
Cc1nn(C)c(C)c1N(C)[S+](=O)([O-])c1ccc(CCCN2CCN(C)CC2)cc1 [DDD90115] | 2.21 | 0.26 | 6.1 |  |  | 
Cc1c(N(C)[S+](=O)([O-])c2ccc(CCCN3CCN(C)CC3)cc2)c(CC(C)C)nn1C [DDD90143] | 0.81 | 0.082 | 1.37 |  |  | 
Cc1c(N[S+](=O)([O-])c2ccc(CCCN3CCN(C)CC3)cc2)c(CC(C)C)nn1C [DDD90147] | 0.20 | 0.034 |  |  |  | 
Cc1nn(C)c(C)c1N(C)[S+](=O)([O-])c1ccc(CCCC2CCN(Cc3ccccc3)CC2)cc1 [DDD90152] | >1 | 0.5 | > 1 |  |  | 
Cc1nn(C)c(C)c1N(C)[S+](=O)([O-])c1ccc(CCCC2CCN(C(C)C)CC2)cc1 [DDD90153] | >1 | 0.31 | > 1 |  |  | 
Cc1nn(C)c(C)c1N(C)[S+](=O)([O-])c1ccc(CCCC2CCN(CC3CC3)CC2)cc1 [DDD90155] | 4.0 | > 1 | > 1 |  |  | 
Cc1nn(C)c(C)c1N(C)[S+](=O)([O-])c1ccc(CCCCCn2ccnc2)cc1 [DDD99735] | >1 | 0.83 | 2.9 |  |  | 
Cc1c(N[S+](=O)([O-])c2ccc(-c3cccc(CN4CCN(C)CC4)c3)cc2)c(CC(C)C)nn1C [DDD99736] | 0.41 | 0.068 |  |  |  | 
CCN(C)Cc1cccc(-c2ccc([S+](=O)([O-])Nc3c(CC(C)C)nn(C)c3C)cc2)c1 [DDD99741] | 0.047 | 0.005 | 0.021 |  |  | 
Cc1c(N[S+](=O)([O-])c2c(Cl)cc(CCCC3CCN(C)CC3)cc2Cl)c(CC(C)C)nn1C [DDD99743] | 0.005 | 0.003 |  |  |  | 
Cc1nn(C)c(C)c1N(C)[S+](=O)([O-])c1ccc(CCCCN(C)C)cc1 [DDD99745] | >1 | 2.1 | > 10 |  |  | 
Cc1nn(C)c(C)c1N(C)[S+](=O)([O-])c1ccc(CCCCn2ccnc2)cc1 [DDD99746] | >1 | 2 | > 10 |  |  | 

Structure (SMILES) | ED50 (μM) T. brucei ([1]; T. brucei cell growth) [µM] | IC50 [2, 3] [µM] | IC50 (human NMT-1; HuNMT-1) [µM] | ED50 (μM) T. brucei [1, 4] [µM] | IC50 [2, 5] [µM] | IC50 (human NMT-1; [6]) [µM]
CCN(CC)Cc1cccc(-c2cc(Cl)c([S+](=O)([O-])Nc3c(CC(C)C)nn(C)c3C)c(Cl)c2)c1 [DDD99747] | 0.067 | 0.008 |  |  |  | 
Cc1nn(C)c(C)c1N(C)[S+](=O)([O-])c1ccc(CCCN(C)C)cc1 [DDD99749] | >1 | 0.45 | > 1 |  |  | 
Cc1nn(C)c(C)c1N(C)[S+](=O)([O-])c1ccc(CCCn2ccnc2)cc1 [DDD99750] | >1 | > 1 | > 1 |  |  | 
CCN(CC)Cc1cccc(-c2ccc([S+](=O)([O-])Nc3c(CC(C)C)nn(C)c3C)c(Cl)c2)c1 [DDD99763] | 0.053 | 0.007 |  |  |  | 
Cc1cc(CN(C)C)cc(-c2ccc([S+](=O)([O-])Nc3c(CC(C)C)nn(C)c3C)cc2)c1 [DDD99817] | 0.047 | 0.014 |  |  |  | 
Cc1cc([S+](=O)([O-])Nc2c(CC(C)C)nn(C)c2C)ccc1-c1cccc(CN(C)C)c1 [DDD99819] | 0.043 | 0.008 |  |  |  | 
Cc1c(N[S+](=O)([O-])c2ccc(-c3cccc(CN4CCC(N(C)C)C4)c3)cc2)c(CC(C)C)nn1C (stereo not drawn) [DDD99821] | 0.59 | 0.16 | 3.8 |  |  | 
Cc1c(N[S+](=O)([O-])c2ccc(-c3cccc(CN(C)C)c3)c(C(F)(F)F)c2)c(CC(C)C)nn1C [DDD99822] | 0.051 | 0.006 |  |  |  | 
Cc1c(N[S+](=O)([O-])c2ccc(-c3cccc(CN(C)C)c3)c(Cl)c2)c(CC(C)C)nn1C [DDD99823] |  |  |  | 0.041 | 0.006 | 
Cc1c(N[S+](=O)([O-])c2ccc(-c3cc(CN(C)C)ccc3F)cc2)c(CC(C)C)nn1C [DDD99827] |  |  |  | 0.019 | 0.007 | 
CCc1nn(C)c(CC)c1NS(=O)(=O)c1c(Cl)cc(Br)cc1Cl [DDD99835] |  |  |  | >1 | 0.38 | > 1
Cc1c(N[S+](=O)([O-])c2ccc(-c3cccc(CC4CCNCC4)c3)cc2)c(CC(C)C)nn1C [DDD100094] |  |  |  | 0.008 | 0.003 | 
CCNCc1cccc(-c2ccc([S+](=O)([O-])Nc3c(CC(C)C)nn(C)c3C)cc2)c1 [DDD100095] |  |  |  | 0.055 | 0.005 | 
Cc1c(N[S+](=O)([O-])c2ccc(-c3cccc(CNCCc4ccccc4)c3)cc2)c(CC(C)C)nn1C [DDD100139] |  |  |  | >1 | 1.4 | 2.3
Cc1c(N[S+](=O)([O-])c2ccc(-c3cccc(CNC4CCCC4)c3)cc2)c(CC(C)C)nn1C [DDD100146] |  |  |  | >1 | 0.36 | 2.3
Cc1nn(C)c(C)c1N(CC(F)F)[S+](=O)([O-])c1c(Cl)cc(Br)cc1Cl [DDD100147] |  |  |  | >1 | 3.2 | > 10
Cc1nn(C)c(C)c1N(CC(F)(F)F)[S+](=O)([O-])C1=C(Cl)C=C(CCCN2CCCNCC2)CC1Cl (stereo not drawn) [DDD100148] |  |  |  | 0.018 | 0.008 | 0.21
Cc1c(N[S+](=O)([O-])c2ccc(CCCCC3CCNCC3)cc2)c(CC(C)C)nn1C [DDD100158] |  |  |  | 0.048 | 0.006 | 
Cc1c(N[S+](=O)([O-])c2ccc(CCCCC3CCN(C)CC3)cc2)c(CC(C)C)nn1C [DDD100162] |  |  |  | 0.093 | 0.01 | 
Cc1c(N[S+](=O)([O-])c2ccc(CCCOC3CCN(C)CC3)cc2)c(CC(C)C)nn1C [DDD100168] |  |  |  | 0.110 | 0.009 | 
COCCNCc1cccc(-c2ccc([S+](=O)([O-])Nc3c(CC(C)C)nn(C)c3C)cc2)c1 [DDD100797] |  |  |  | 0.492 | 0.023 | 
CCCNCc1cccc(-c2ccc([S+](=O)([O-])Nc3c(CC(C)C)nn(C)c3C)cc2)c1 [DDD100800] |  |  |  | 0.052 | 0.006 | 
